Results: patent US20250074920A1, “MACROCYCLIC COMPOUNDS AND USE AS KINASE INHIBITORS” (BLOSSOMHILL THERAPEUTICS, INC., priority 2022, published 2025)

How the values were obtained:
Test in all cases: KINOMEscan kinase binding assay
PDGFRA = conditions: at 1 μM
Description: (§1) Kinase binding assays were performed at Eurofins/DiscoveRx using the general KINOMEscan Protocol (Fabian, M. A. et al., “A small molecule-kinase interaction map for clinical kinase inhibitors,” Nat. Biotechnol. 2005, 23(3):329-36). For most assays, kinase-tagged T7 phage strains were prepared in an E. coli host derived from the BL21 strain. E. coli were grown to log-phase and infected with T7 phage and incubated with shaking at 32° C. until lysis. The lysates were centrifuged and filtered to remove cell debris. The remaining kinases were produced in HEK-293 cells and subsequently tagged with DNA for qPCR detection. Streptavidin-coated magnetic beads were treated with biotinylated small molecule ligands for 30 minutes at room temperature to generate affinity resins for kinase assays. The liganded beads were blocked with excess biotin and washed with blocking buffer (SeaBlock (Pierce), 1% BSA, 0.05% Tween 20, 1 mM DTT) to remove unbound ligand and to reduce nonspecific binding. Binding reactions were assembled by combining kinases, liganded affinity beads, and test compounds in 1× binding buffer (20% SeaBlock, 0.17×PBS, 0.05% Tween 20, 6 mM DTT). All reactions were performed in polystyrene 96-well plates in a final volume of 0.135 mL. The assay plates were incubated at room temperature with shaking for 1 hour and the affinity beads were washed with wash buffer (1×PBS, 0.05% Tween 20). The beads were then re-suspended in elution buffer (1×PBS, 0.05% Tween 20, 0.5 μM non-biotinylated affinity ligand) and incubated at room temperature with shaking for 30 minutes. The kinase concentration in the eluates was measured by qPCR. Results for compounds tested in this assay at a given concentration are reported as “% Ctrl”, where lower numbers indicate stronger binding in the matrix. % Ctrl was calculated as (test compound signal-positive control signal)/(negative control signal-positive control signal)×100. Dissociation constants (Kds) for test compound-kinase interactions were calculated by measuring the amount of kinase captured on the solid support as a function of the test compound concentration.

EGFR = conditions: at 1 μM
Description: as §1

ERBB2 = conditions: at 1 μM
Description: as §1

KIT(D816V) = conditions: at 1 μM
Description: as §1

EPHA8 = conditions: at 1 μM
Description: as §1

[1] = system: ABL1(T315I)-phosphorylated; conditions: at 1 μM
Description: as §1

FGR = conditions: at 1 μM
Description: as §1

[2] = system: ABL1(F317L)-phosphorylated; conditions: at 1 μM
Description: as §1

FLT3(N841I) = conditions: at 1 μM
Description: as §1

[3] = system: ABL1(F3171)-phosphorylated; conditions: at 1 μM
Description: as §1

EGFR(T790M) = conditions: at 1 μM
Description: as §1

ALK(L1196M) = conditions: at 1 μM
Description: as §1

[4] = system: TYK2(JH2domain-pseudokinase); conditions: for % Ctrl: TYK2(JH2domain-pseudokinase), at 1 μM; for Kd: read-out: TYK2(JH2 domain-pseudokinase) Kd
Description: as §1

MET = conditions: at 1 μM
Description: as §1

[5] = system: ABL1(Q252H)-phosphorylated; conditions: at 1 μM
Description: as §1

RET = conditions: at 1 μM
Description: as §1

KIT(A829P) = conditions: at 1 μM
Description: as §1

EGFR(L861Q) = conditions: at 1 μM
Description: as §1

YES = conditions: at 1 μM
Description: as §1

[6] = system: ABL1(E255K)-phosphorylated; conditions: at 1 μM
Description: as §1

[7] = system: JAK2(JH1domain-catalytic); conditions: for % Ctrl: JAK2(JH1domain-catalytic), at 1 μM; for Kd: read-out: JAK2(JH1 domain-catalytic) Kd
Description: as §1

FLT3(D835V) = conditions: at 1 μM
Description: as §1

[8] = system: ABL1(H396P)-nonphosphorylated; conditions: at 1 μM
Description: as §1

FER = conditions: at 1 μM
Description: as §1

EPHB6 = conditions: at 1 μM
Description: as §1

ABL1-nonphosphorylated = conditions: at 1 μM
Description: as §1

FLT4 = conditions: at 1 μM
Description: as §1

EGFR(G719C) = conditions: at 1 μM
Description: as §1

[9] = system: ABL1(Y253F)-phosphorylated; conditions: at 1 μM
Description: as §1

EPHA5 = conditions: at 1 μM
Description: as §1

KIT-autoinhibited = conditions: at 1 μM
Description: as §1

ABL1-phosphorylated = conditions: at 1 μM
Description: as §1

FLT3(D835Y) = conditions: at 1 μM
Description: as §1

DDR2 = conditions: at 1 μM
Description: as §1

ALK(C1156Y) = conditions: at 1 μM
Description: as §1

FLT1 = conditions: at 1 μM
Description: as §1

EPHB4 = conditions: at 1 μM
Description: as §1

KIT(L576P) = conditions: at 1 μM
Description: as §1

ERBB3 = conditions: at 1 μM
Description: as §1

CTK = conditions: at 1 μM
Description: as §1

Cc1cc2c([nH]1)/C=C1\C(=O)Nc3ccc(cc31)-c1c(nn(C)c1C)OCCCN(C)C2=O [Cpd. 1, [3a(4)Z]-6,9,15,16-tetramethyl-9,10,11,12-tetrahydro-15H-1,17-(ethanediylidene)pyrazolo[4,3-n]dipyrrolo[3,2-g:3′,4′-j][1,5]oxazacyclopentadecine-3,8(2H,5H)-dione]
% Ctrl (PDGFRA): 87%
% Ctrl (EGFR): 100%
% Ctrl (ERBB2): 98%
% Ctrl (KIT(D816V)): 97%
% Ctrl (EPHA8): 100%
% Ctrl [1]: 95%
% Ctrl (FGR): 91%
% Ctrl [2]: 86%
% Ctrl (FLT3(N841I)): 97%
% Ctrl [3]: 64%
% Ctrl (EGFR(T790M)): 88%
% Ctrl (ALK(L1196M)): 89%
% Ctrl [4]: 1.5%
Kd [4]: 220 nM
% Ctrl (MET): 84%
% Ctrl [5]: 99%
% Ctrl (RET): 94%
% Ctrl (KIT(A829P)): 93%
% Ctrl (EGFR(L861Q)): 82%
% Ctrl (YES): 100%
% Ctrl [6]: 92%
% Ctrl [7]: 98%
Kd [7]: > 10000 nM
% Ctrl (FLT3(D835V)): 61%
% Ctrl [8]: 87%
% Ctrl (FER): 97%
% Ctrl (EPHB6): 100%
% Ctrl (ABL1-nonphosphorylated): 87%
% Ctrl (FLT4): 94%
% Ctrl (EGFR(G719C)): 81%
% Ctrl [9]: 92%
% Ctrl (EPHA5): 93%
% Ctrl (KIT-autoinhibited): 81%
% Ctrl (ABL1-phosphorylated): 81%
% Ctrl (FLT3(D835Y)): 97%
% Ctrl (DDR2): 95%
% Ctrl (ALK(C1156Y)): 100%
% Ctrl (FLT1): 97%
% Ctrl (EPHB4): 86%
% Ctrl (KIT(L576P)): 88%
% Ctrl (ERBB3): 100%
% Ctrl (CTK): 58%

Cc1cc2c([nH]1)/C=C1\C(=O)Nc3ccc(cc31)-c1c(nn(C)c1C)COCCN(C)C2=O [Cpd. 2, [3a(4)Z]-6,9,15,16-tetramethyl-10,11,13,15-tetrahydro-2H-1,17-(ethanediylidene)pyrazolo[4,3-m]dipyrrolo[3,2-f:3′,4′-i][1,4]oxazacyclopentadecine-3,8(5H,9H)-dione]
% Ctrl (PDGFRA): 73%
% Ctrl (EGFR): 66%
% Ctrl (ERBB2): 100%
% Ctrl (KIT(D816V)): 60%
% Ctrl (EPHA8): 92%
% Ctrl [1]: 5.3%
% Ctrl (FGR): 100%
% Ctrl [2]: 78%
% Ctrl (FLT3(N841I)): 24%
% Ctrl [3]: 98%
% Ctrl (EGFR(T790M)): 85%
% Ctrl (ALK(L1196M)): 94%
% Ctrl [4]: 0.6%
Kd [4]: 1.2 nM
% Ctrl (MET): 95%
% Ctrl [5]: 62%
% Ctrl (RET): 90%
% Ctrl (KIT(A829P)): 92%
% Ctrl (EGFR(L861Q)): 62%
% Ctrl (YES): 100%
% Ctrl [6]: 45%
% Ctrl [7]: 91%
Kd [7]: 2300 nM
% Ctrl (FLT3(D835V)): 7.9%
% Ctrl [8]: 35%
% Ctrl (FER): 100%
% Ctrl (EPHB6): 93%
% Ctrl (ABL1-nonphosphorylated): 55%
% Ctrl (FLT4): 19%
% Ctrl (EGFR(G719C)): 80%
% Ctrl [9]: 60%
% Ctrl (EPHA5): 99%
% Ctrl (KIT-autoinhibited): 100%
% Ctrl (ABL1-phosphorylated): 50%
% Ctrl (FLT3(D835Y)): 36%
% Ctrl (DDR2): 100%
% Ctrl (ALK(C1156Y)): 93%
% Ctrl (FLT1): 79%
% Ctrl (EPHB4): 100%
% Ctrl (KIT(L576P)): 100%
% Ctrl (ERBB3): 100%
% Ctrl (CTK): 93%

Cc1cc2c([nH]1)/C=C1\C(=O)Nc3c(Cl)cc(cc31)-c1cn(C)nc1COC[C@@H](C)NC2=O [Cpd. 3, [3a(4)Z,10R]-20-chloro-6,10,15-trimethyl-10,11,13,15-tetrahydro-2H-1,17-(ethanediylidene)pyrazolo[4,3-m]dipyrrolo[3,2-f:3′,4′-i][1,4]oxazacyclopentadecine-3,8(5H,9H)-dione]
% Ctrl (PDGFRA): 92%
% Ctrl (EGFR): 79%
% Ctrl (ERBB2): 100%
% Ctrl (KIT(D816V)): 97%
% Ctrl (EPHA8): 90%
% Ctrl [1]: 69%
% Ctrl (FGR): 98%
% Ctrl [2]: 93%
% Ctrl (FLT3(N841I)): 90%
% Ctrl [3]: 97%
% Ctrl (EGFR(T790M)): 87%
% Ctrl (ALK(L1196M)): 94%
% Ctrl [4]: 0%
Kd [4]: 3 nM
% Ctrl (MET): 100%
% Ctrl [5]: 100%
% Ctrl (RET): 96%
% Ctrl (KIT(A829P)): 99%
% Ctrl (EGFR(L861Q)): 98%
% Ctrl (YES): 99%
% Ctrl [6]: 100%
% Ctrl [7]: 93%
Kd [7]: > 10000 nM
% Ctrl (FLT3(D835V)): 100%
% Ctrl [8]: 100%
% Ctrl (FER): 73%
% Ctrl (EPHB6): 86%
% Ctrl (ABL1-nonphosphorylated): 92%
% Ctrl (FLT4): 100%
% Ctrl (EGFR(G719C)): 100%
% Ctrl [9]: 91%
% Ctrl (EPHA5): 100%
% Ctrl (KIT-autoinhibited): 87%
% Ctrl (ABL1-phosphorylated): 96%
% Ctrl (FLT3(D835Y)): 81%
% Ctrl (DDR2): 100%
% Ctrl (ALK(C1156Y)): 89%
% Ctrl (FLT1): 92%
% Ctrl (EPHB4): 97%
% Ctrl (KIT(L576P)): 100%
% Ctrl (ERBB3): 74%
% Ctrl (CTK): 80%

C[C@@H]1COCc2nn(C)cc2-c2cc(Cl)c3c(c2)/C(=C/c2[nH]ccc2C(=O)N1)C(=O)N3 [Cpd. 4, [3a(4)Z,10R]-20-chloro-10,15-dimethyl-10,11,13,15-tetrahydro-2H-1,17-(ethanediylidene)pyrazolo[4,3-m]dipyrrolo[3,2-f:3′,4′-i][1,4]oxazacyclopentadecine-3,8(5H,9H)-dione]
% Ctrl (PDGFRA): 96%
% Ctrl (EGFR): 82%
% Ctrl (ERBB2): 100%
% Ctrl (KIT(D816V)): 100%
% Ctrl (EPHA8): 82%
% Ctrl [1]: 35%
% Ctrl (FGR): 100%
% Ctrl [2]: 90%
% Ctrl (FLT3(N841I)): 78%
% Ctrl [3]: 98%
% Ctrl (EGFR(T790M)): 90%
% Ctrl (ALK(L1196M)): 94%
% Ctrl [4]: 0.2%
Kd [4]: 1.9 nM
% Ctrl (MET): 98%
% Ctrl [5]: 89%
% Ctrl (RET): 100%
% Ctrl (KIT(A829P)): 92%
% Ctrl (EGFR(L861Q)): 89%
% Ctrl (YES): 95%
% Ctrl [6]: 94%
% Ctrl [7]: 57%
Kd [7]: 1800 nM
% Ctrl (FLT3(D835V)): 75%
% Ctrl [8]: 82%
% Ctrl (FER): 68%
% Ctrl (EPHB6): 86%
% Ctrl (ABL1-nonphosphorylated): 84%
% Ctrl (FLT4): 100%
% Ctrl (EGFR(G719C)): 93%
% Ctrl [9]: 79%
% Ctrl (EPHA5): 100%
% Ctrl (KIT-autoinhibited): 82%
% Ctrl (ABL1-phosphorylated): 90%
% Ctrl (FLT3(D835Y)): 96%
% Ctrl (DDR2): 79%
% Ctrl (ALK(C1156Y)): 100%
% Ctrl (FLT1): 92%
% Ctrl (EPHB4): 98%
% Ctrl (KIT(L576P)): 100%
% Ctrl (ERBB3): 76%
% Ctrl (CTK): 76%
